System: HIV-1 viral constructs Q60, K-60, and V-18
Assay: Cell spread assay (HIV-1 p24 accumulation in MT-4 T-lymphoid cells), mutant viral constructs
Format: cell-based
Conditions: one range stated for the three mutant viral constructs together; MT-4 cells, 4 days postinfection
Procedure: Inhibition of the spread of HIV in cell culture was measured according to Nunberg et al., J. Virol. […] In this assay, MT-4 T-lymphoid cells were infected with HIV-1 (wild-type, unless otherwise indicated) by using a predetermined inoculum, and cultures were incubated for 24 h. At this time, ≦1% of the cells were positive by indirect immunofluorescence. Cells were then extensively washed and distributed into 96-well culture dishes. Serial twofold dilutions of inhibitor were added to the wells, and cultures were continued for 3 additional days. At 4 days postinfection, 100% of the cells in control cultures were infected. HIV-1 p24 accumulation was directly correlated with virus spread. The cell culture inhibitory concentration was defined as the inhibitor concentration in nanomoles/liter which reduced the spread of infection by at least 95%, or CIC95.

CC(C)(C)NC(=O)[C@@H]1CN(Cc2cccnc2)CCN1C[C@@H](O)C[C@@H](Cc1ccccc1)C(=O)N[C@H]1c2ccccc2C[C@H]1O [indinavir, N-(2(R)-hydroxy-1(S)-indanyl)-2(R)-phenylmethyl-4-(S)-hydroxy-5-(1-(4-(3-pyridyl-methyl)-2(S)-N′-(t-butylcarboxamido)-piperazinyl))-pentaneamide]
CIC95 against the viral constructs Q60, K-60, and V-18: greater than 1000 nM

Reference: US6589962B1, “Alpha-hydroxy-gamma-[[(carbocyclic-or heterocyclic-substituted)amino]carbonyl]alkanamide derivatives and uses thereof” (priority 1999, dated 2003)
